Data: patent publication US11976074B1, “Crystalline salts of Linsitinib” (Sling Therapeutics, Inc., priority 2023, dated 2024)

What was measured:
Type in all cases: physicochemical
[1] = Polymorph screen of linsitinib malate (PXRD/XRPD result); settings: solvent and conditions per sample no.; for PXRD Results: polymorph screen of linsitinib malate, slurry, cooling, precipitation or lyophilization
Procedure: A Rigaku SmartLab X-Ray Diffractometer was configured in Bragg-Brentano reflection geometry equipped with a beam stop and knife edge to reduce incident beam and air scatter.
A polymorph screen of linsitinib malate was conducted. Experiments were designed to target thermodynamically stable forms and therefore utilized techniques such as long-term slurry, cooling, anti-solvent addition, and evaporation. Reaction crystallization experiments with linsitinib free base and L-malic acid were also conducted. Additionally, non-crystalline material was used as an alternative starting material as this can provide access to polymorphs that would not be accessible from crystalline starting material.

[2] = Interconversion slurries of esylate forms; settings: 4° C., RT, 60° C.; MEK and 2:1 EtOH:HEP
Procedure: To find the thermodynamically stable form of the mono-salt, interconversion slurries were set-up at three different temperatures in two different solvent systems between Esylates 1, 2, 3 and Esylate 4+Esylate 5 (Table 11). A sample of Esylate 4+Esylate 5 was included as part of the interconversion slurry in-spite of Esylate 4 being a solvate as Esylate 5 could not be isolated as a separate pure phase until the drying experiment was carried out on Esylate 4 towards the end of the study. Slurries were set-up at 4° C., RT and at 60° C. in MEK and 2:1 EtOH:HEP, resulting in a total of six experiments which were run for a total of 7 days.

[3] = Thermogravimetric analysis (TGA)
Procedure: The TG analysis was carried out using a TA Instruments […] Discovery Series instrument. The instrument balance was calibrated using class M weights and the temperature calibration was performed using alumel. The nitrogen purge was 10 mL per minute at the balance and 25 mL per minute at the furnace. The sample was placed into a pre-tared platinum pan and heated from approximately 25° C. to 300° C. at a rate of 10° C. per minute.

[4] = pH-solubility of linsitinib free base and selected salts (pH 1.5 to 6.5, overnight equilibration, HPLC); settings: for solubility: overnight equilibration; for Final pH: after overnight equilibration
Procedure: The pH-solubility of selected salts (Phosphate 1, L-Malate 1, Esylate 1, and Esylate 2) was evaluated and compared with linsitinib free base. The solubility analysis was conducted in a manner consistent with a previous study that was performed with linsitinib free base. Aqueous solutions were prepared between pH 1.5 and pH 6.5 in 0.5 pH unit increments via titration of the solution using NaOH and HCl. For each salt or the free base, an attempt was made to reach saturation in each of the solutions by adding sufficient material to the solution such that excess solids remained. If saturation was achieved, the pH of the solution was measured and adjusted to the target pH and additional material was added if needed. The samples were then equilibrated overnight. The final pH of the solution was measured, the solids were filtered and selected samples were analyzed by PXRD. The concentration of linsitinib in the filtrate was quantitated by HPLC (diluted as needed). In some cases, significant drift (+1 pH unit or more) of the final pH from the target pH was observed after the overnight equilibration.
The pH-solubility data is shown graphically in FIG. 89. […] Indeed, it should be noted that in the majority of the low pH systems, higher initial dissolution/solubility was observed followed by precipitation of the material from solution upon longer equilibration.

[5] = Equilibrium solubility in bio-relevant media (FaSSGF pH 1.6, FaSSIF pH 6.5); settings: for Solubility compared with the free base: in words
Description: In addition to the pH-solubility data, a comparison of the equilibrium solubility of linsitinib free base and salts in two bio-relevant media (Table 28), fasted state simulated gastric fluid (FaSSGF pH 1.6) and intestinal fluid (FaSSIF pH 6.5) was completed. […] A saturated solution of Esylate 1 was not achieved during this study and therefore the equilibrium solubility could be higher than determined. It should be noted that variability of almost a full pH unit was noted among the samples making a direct comparison more challenging.

[6] = Water activity slurries of Esylate 2 seeded with Esylate 1; settings: THF/H2O, aw 0.45-0.91, RT
Description: Water activity slurries were set-up with Esylate 2 and seeds of Esylate 1 to explore the presence of a potential hydrate and any associated critical water activity (Table 12). Four slurries were set-up in varying ratios of THF and H2O corresponding to 0.45, 0.63, 0.78 and 0.91 aw respectively.

[7] = Physical stability on capped storage at room temperature (PXRD reanalysis)
Procedure: A theoretical hemi-hydrate for a mono-edisylate salt of linsitinib would contain 1.4% water. Additional endotherms are observed at 252 and 278° C. that are likely due to melt/decomposition based on the corresponding weight loss in the TGA beginning around 244° C.
HCl 1 was generated via evaporation of a solution containing 1:1 linsitinib:acid in tetrahydrofuran (THF)/water at 70° C. […] The weight loss is likely due to water and potentially evolution of hydrochloric acid.
The sample was initially analyzed by PXRD and stored at ambient temperature in a capped vial. (FIG. 85).

[8] = aqueous solution, pH 4, aqueous buffer, thermodynamic from solid, target pH 4.0, * = clear solution, not equilibrium value, read-out: Solubility
[9] = aqueous solution, pH 4.5, aqueous buffer, thermodynamic from solid, target pH 4.5, * = clear solution, not equilibrium value, read-out: Solubility
[10] = aqueous solution, pH 5, aqueous buffer, thermodynamic from solid, target pH 5.0, read-out: Solubility
[11] = aqueous solution, pH 5.5, aqueous buffer, thermodynamic from solid, target pH 5.5, read-out: Solubility
[12] = aqueous solution, pH adjusted with NaOH and HCl, pH 1.5, aqueous buffer, thermodynamic from solid, target pH 1.5, * = clear solution, not equilibrium value, read-out: Solubility
[13] = aqueous solution, pH adjusted with NaOH and HCl, pH 2, aqueous buffer, thermodynamic from solid, target pH 2.0, * = clear solution, not equilibrium value, read-out: Solubility
[14] = aqueous solution, pH adjusted with NaOH and HCl, pH 2.5, aqueous buffer, thermodynamic from solid, target pH 2.5, * = clear solution, not equilibrium value, read-out: Solubility
[15] = aqueous solution, pH adjusted with NaOH and HCl, pH 3, aqueous buffer, thermodynamic from solid, target pH 3.0, * = clear solution, not equilibrium value, read-out: Solubility
[16] = aqueous solution, pH adjusted with NaOH and HCl, pH 3.5, aqueous buffer, thermodynamic from solid, target pH 3.5, * = clear solution, not equilibrium value, read-out: Solubility
[17] = fasted state simulated gastric fluid (FaSSGF), pH 1.6, fassgf or other biorelevant, thermodynamic from solid, FaSSGF (pH 1.6), read-out: Solubility

Question: Which “PXRD Results” value ([1]; listed as 4-45) does the source give for `C[C@]1(O)C[C@@H](c2nc(-c3ccc4ccc(-c5ccccc5)nc4c3)c3c(N)nccn32)C1.O=C(O)C[C@H](O)C(=O)O` [L-Malate 2] here?
Answer: Malate 2

Question: With `CCS(=O)(=O)O.C[C@]1(O)C[C@@H](c2nc(-c3ccc4ccc(-c5ccccc5)nc4c3)c3c(N)nccn32)C1` [Esylate 5] as the molecule, how does the “Relative stability of the form in interconversion slurries” value [2] read?
Answer: metastable

Question: Which “TGA Results (weight loss)” value ([3]; start to 61° C.) does the source give for `C[C@]1(O)C[C@@H](c2nc(-c3ccc4ccc(-c5ccccc5)nc4c3)c3c(N)nccn32)C1.O=C(O)C[C@H](O)C(=O)O` [L-Malate 6] here?
Answer: 4.2%, start to 61 °C

Question: Which results are given for `CCS(=O)(=O)O.C[C@]1(O)C[C@@H](c2nc(-c3ccc4ccc(-c5ccccc5)nc4c3)c3c(N)nccn32)C1` [Esylate 1]?
Answer: solubility [4, 8]: 32.3 mg/mL; solubility [4, 9]: 36.6 mg/mL; solubility [4, 10]: 28.7 mg/mL; solubility [4, 11]: 0.0517 mg/mL; solubility [4, 12]: 64.3 mg/mL; solubility [4, 13]: 59.1 mg/mL; solubility [4, 14]: 47.3 mg/mL; solubility [4, 15]: 53 mg/mL; solubility [4, 16]: 31 mg/mL; Solubility compared to the free base and other salts ([4]; between pH 3 and pH 4): highest solubility; Solubility compared with the free base or Phosphate 1 ([4]; lower pH (<3)): significantly higher solubility; Final pH ([4]; target pH 1.5): 1.52; Final pH ([4]; target pH 2.0): 1.99; Final pH ([4]; target pH 2.5): 2.50; Final pH ([4]; target pH 3.0): 3.04; Final pH ([4]; target pH 3.5): 3.50; Final pH ([4]; target pH 4.0): 3.94; Final pH ([4]; target pH 4.5): 4.36; Final pH ([4]; target pH 5.0): 3.86; Final pH ([4]; target pH 5.5): 4.47; Final pH ([4]; target pH 6.0): 9.08; Final pH ([4]; target pH 6.5): 4.46; solubility ([4]; target pH 6.5): 0.0296 mg/mL; Final pH ([5]; FaSSGF (pH 1.6)): 3.30; Solubility compared with the free base ([5]; FaSSGF (pH 1.6)): highest solubility by a significant margin; Final pH ([5]; FaSSIF (pH 6.5)): 6.20; solubility ([5]; FaSSIF (pH 6.5)): 0.006 mg/mL; Solubility compared with the free base ([5]; FaSSIF (pH 6.5)): lower solubility; solubility [5, 17]: ≥ 61.6 mg/mL; Relative stability of the form in water activity slurries [6]: metastable

Question: For `C[C@]1(O)C[C@@H](c2nc(-c3ccc4ccc(-c5ccccc5)nc4c3)c3c(N)nccn32)C1.Cl` [HCl 1], which “PXRD result after storage at RT” value ([7]; 17 days, capped) is on record?
Answer: no significant changes

Question: And the “PXRD result after storage at RT” value ([7]; 17 days, capped, listed as 2-11)?
Answer: HCl 1

Question: With `C[C@]1(O)C[C@@H](c2nc(-c3ccc4ccc(-c5ccccc5)nc4c3)c3c(N)nccn32)C1` [Edisylate 1] as the molecule, how does the “PXRD result after storage at RT” value ([7]; 20 days, capped) read?
Answer: no significant changes

Question: What about the “PXRD result after storage at RT” value ([7]; 20 days, capped, listed as 2-4) of the same molecule?
Answer: Edisylate 1

Question: Which results are given for `C[C@]1(O)C[C@@H](c2nc(-c3ccc4ccc(-c5ccccc5)nc4c3)c3c(N)nccn32)C1` [Form J]?
Answer: PXRD result after storage at RT ([7]; 17 days, capped): Form I; PXRD result after storage at RT ([7]; 20 days, capped): converted to Form I

Question: Which solubility [4, 8] does the source give for `C[C@]1(O)C[C@@H](c2nc(-c3ccc4ccc(-c5ccccc5)nc4c3)c3c(N)nccn32)C1.O=P(O)(O)O` [Phosphate 1] here?
Answer: 5.87 mg/mL

Question: And the solubility [4, 9]?
Answer: 3.04 mg/mL

Question: And the solubility [4, 10]?
Answer: 0.0458 mg/mL

Question: And the solubility [4, 11]?
Answer: 0.035 mg/mL

Question: What about the solubility ([4]; aqueous solution, pH 6, aqueous buffer, thermodynamic from solid, target pH 6.0, read-out: Solubility) of the same molecule?
Answer: 0.0046 mg/mL

Question: What about the solubility ([4]; aqueous solution, pH 6.5, aqueous buffer, thermodynamic from solid, target pH 6.5, read-out: Solubility) of the same molecule?
Answer: 0.001 mg/mL

Question: What about the solubility [4, 12] of the same molecule?
Answer: 38.6 mg/mL

Question: What about the solubility [4, 13] of the same molecule?
Answer: 25.9 mg/mL

Question: And the solubility [4, 14]?
Answer: 18.4 mg/mL

Question: And the solubility [4, 15]?
Answer: 14.9 mg/mL

Question: And the solubility [4, 16]?
Answer: 7.5 mg/mL

Question: And the “Final pH” value ([4]; target pH 1.5)?
Answer: 1.39

Question: What about the “Final pH” value ([4]; target pH 2.0) of the same molecule?
Answer: 1.72

Question: What about the “Final pH” value ([4]; target pH 2.5) of the same molecule?
Answer: 2.46

Question: And the “Final pH” value ([4]; target pH 3.0)?
Answer: 2.58

Question: What about the “Final pH” value ([4]; target pH 3.5) of the same molecule?
Answer: 2.89

Question: What about the “Final pH” value ([4]; target pH 4.0) of the same molecule?
Answer: 3.69

Question: And the “Final pH” value ([4]; target pH 4.5)?
Answer: 4.01

Question: And the “Final pH” value ([4]; target pH 5.0)?
Answer: 5.49

Question: What about the “Final pH” value ([4]; target pH 5.5) of the same molecule?
Answer: 5.73

Question: What about the “Final pH” value ([4]; target pH 6.0) of the same molecule?
Answer: 5.65

Question: And the “Final pH” value ([4]; target pH 6.5)?
Answer: 6.21

Question: And the “Final pH” value ([5]; FaSSGF (pH 1.6))?
Answer: 2.74

Question: And the “Solubility compared with the free base” value ([5]; FaSSGF (pH 1.6))?
Answer: largely comparable

Question: What about the “Final pH” value ([5]; FaSSIF (pH 6.5)) of the same molecule?
Answer: 5.63

Question: And the solubility [5, 17]?
Answer: 9.51 mg/mL

Question: What about the solubility ([5]; fasted state simulated intestinal fluid (FaSSIF), pH 6.5, fassif, thermodynamic from solid, FaSSIF (pH 6.5), read-out: Solubility) of the same molecule?
Answer: 0.009 mg/mL

Question: For `C[C@]1(O)C[C@@H](c2nc(-c3ccc4ccc(-c5ccccc5)nc4c3)c3c(N)nccn32)C1` [Form B, reference compound], which “PXRD result after storage at RT” value ([7]; 23 days) is on record?
Answer: Form B (LC)

Question: For `C[C@]1(O)C[C@@H](c2nc(-c3ccc4ccc(-c5ccccc5)nc4c3)c3c(N)nccn32)C1` [Form I], which “PXRD result after storage at RT” value ([7]; 20 days, capped, listed as 2-13) is on record?
Answer: Form I

Question: With `C[C@]1(O)C[C@@H](c2nc(-c3ccc4ccc(-c5ccccc5)nc4c3)c3c(N)nccn32)C1.O=C(O)C[C@H](O)C(=O)O` [L-Malate 3] as the molecule, how does the “TGA Results (weight loss)” value ([3]; 90° C. to 139° C.) read?
Answer: 0.6%, 90 °C to 139 °C

Question: And the “TGA Results (weight loss)” value ([3]; start to 90° C.)?
Answer: 3.0%, start to 90 °C

Question: What about the “PXRD Results” value ([1]; listed as 4-22) of the same molecule?
Answer: Malate 3; LC

Question: With `C[C@]1(O)C[C@@H](c2nc(-c3ccc4ccc(-c5ccccc5)nc4c3)c3c(N)nccn32)C1.O=C(O)C[C@H](O)C(=O)O` [L-Malate 9] as the molecule, how does the “XRPD Results” value ([1]; polymorph screen starting from non-crystalline linsitinib L-malate, vapor stress, humidity stress, slurry or precipitation, listed as 4-66) read?
Answer: Malate 9
